Measurements as given in the CheMixHub ionic liquid set.

Assay: xn = mol fraction of the nth substance listed

CCCC[n+]1ccn(C)c1.O=S(=O)([O-])C(F)(F)F + CCCCO
viscosity [mPa·s], 100 kPa
Conditions | x1 = 0.1091 | x1 = 0.2147 | x1 = 0.2908 | x1 = 0.4008 | x1 = 0.5123 | x1 = 0.5928 | x1 = 0.6991 | x1 = 0.8056 | x1 = 0.9078 | x1 = 1
298.15 K | 3.69 | 6.2 | 8.9 | 14.2 | 20.6 | 26 | 35.4 | 47.6 | 63 | 82
303.15 K | 3.24 | 5.1 | 6.9 | 11.5 | 17.5 | 22.6 | 30.2 | 38.8 | 51 | 67
308.15 K | 2.87 | 4.45 | 6 | 11 | 15.3 | 19.3 | 25.4 | 32 | 40.6 | 53
313.15 K | 2.55 | 3.93 | 5.3 | 9.5 | 13.6 | 16.9 | 21.6 | 27.2 | 34.7 | 43.7
318.15 K | 2.27 | 3.48 | 4.68 | 7.9 | 11.2 | 13.8 | 17.8 | 22.6 | 28.5 | 36.3
323.15 K | 2.04 | 3.11 | 4.17 | 7.2 | 10.1 | 12.4 | 15.8 | 19.3 | 24.4 | 30.6

CCCCCCCCn1cc[n+](C)c1.F[B-](F)(F)F + CCCCOC(C)=O
298.15 K, 101 kPa
Conditions | viscosity [mPa·s]
x2 = 0.114 | 187
x2 = 0.4512 | 34.1
x2 = 0.9065 | 1.76
